In test [1] the target is recombinant human α2C receptor CHO cell line (Homo sapiens (Human), UniProt P18825). The test is described as follows: Antagonism against adrenoreceptor α2C (luminescence, noradrenaline-stimulated recombinant CHO cells). The format is cell-based. The settings on record: 20 nM noradrenaline, tested up to 10 μM. As to the method: B-1a) Antagonism Against Adrenoreceptors
Antagonism against the adrenoreceptor α1A was tested using a recombinant human α1A receptor CHO cell line which additionally also recombinantly expresses mtAeq (mitochondrial aequorin). Antagonism against the adrenoreceptor α2A was tested using a recombinant human α2A-Gα16 receptor fusion protein CHO cell line (PerkinElmer Life Sciences) which additionally also recombinantly expresses mtAeq. Antagonism against the adrenoreceptor α2B was tested using a recombinant human α2B receptor CHO cell line (PerkinElmer Life Sciences) which additionally also recombinantly expresses mtAeq. Antagonism against the adrenoreceptor α2C was tested using a recombinant human α2C receptor CHO cell line which additionally also recombinantly expresses a chimeric G protein (Gαqi3) and mtOb (mitochondrial obelin).
The cells were cultivated at 37° C. and 5% CO2 in Dulbecco's modified Eagle's Medium/NUT mix F12 with L-glutamine which additionally contained 10% (v/v) inactivated foetal calf serum, 1 mM sodium pyruvate, 0.9 mM sodium bicarbonate, 50 U/ml penicillin, 50 μg/ml streptomycin, 2.5 μg/ml amphotericin B and 1 mg/ml Geneticin. The cells were passaged with enzyme-free Hank's-based cell dissociation buffer. All cell culture reagents used were from Invitrogen (Carlsbad, USA).
Luminescence measurements were carried out on white 384-well microtitre plates. 2000 cells/well were plated in a volume of 25 μl and cultivated for one day at 30° C. and 5% CO2 in cell culture medium with coelenterazine (α2A and α2B: 5 μg/ml; α1a/c and α2C: 2.5 μg/ml). Serial dilutions of the test substances (10 μl) were added to the cells. After 5 minutes, noradrenaline was added to the cells (35 μl; final concentrations: 20 nM (α1a/c and α2C) or 200 nM (α2A and α2B)), and the emitted light was measured for 50 seconds using a CCD (charge-coupled device) camera (Hamamatsu Corporation, Shizuoka, Japan) in a light-tight box. The test substances were tested up to a maximum concentration of 10 μM. The IC50 values were calculated from the appropriate dose-response curves.

Test [2] relates to diabetic (ZDFfa/fa) and healthy rats (Wistar). Put plainly: Assay of perfusion-enhancing substances (microcirculation), laser doppler probe at the paw. The conditions noted are these: single oral dose; for factor by which microcirculation is improved at MED compared to placebo: at the MED, 30 min after administration; for MED skin temperature: minimum effective dose for significant increase of skin temperature (ttest); for MED microcirculation: minimum effective dose with significantly improved microcirculation vs placebo, measured 30 min after administration. The test is classed as in vivo, rat. The source says:
B-2e) Assay of Perfusion-Enhancing Substances (Microcirculation)
In diabetic (ZDFfa/fa) and healthy rats (Wistar), a laser doppler probe was fastened under anaesthesia conditions (isoflurane anaesthesia) at the sole of the paw for measuring cutaneous microcirculation. The test animals were once treated orally with the test substances. During the experiment, microperfusion and temperature of the lower extremities were documented continuously. Here, a temperature-sensitive laser doppler probe (Periflux, 02C) was fastened with adhesive to the paws of the animals, allowing the measurement of microperfusion and skin temperature. The microcirculation measurement values were measured on both paws 30 min after oral administration of the test substance. […] Also stated is the MED for the significant increase of skin temperature (ttest).
Microcirculation data for adrenoreceptor α2C receptor antagonist of the compound of Example 11 and for comparative substance ORM12741, an AR α2C receptor antagonist from Orion, are shown in Table 2: […]

pIC50: −log10 of the molar value. Structures can show the parent of a compound that is named as a salt.

What is called pIC50 is the IC50 on a negative log10 scale, so that one unit is a factor of ten.

Sequence of recombinant human α2C receptor CHO cell line (P18825 whole entry, the tested form may be a part): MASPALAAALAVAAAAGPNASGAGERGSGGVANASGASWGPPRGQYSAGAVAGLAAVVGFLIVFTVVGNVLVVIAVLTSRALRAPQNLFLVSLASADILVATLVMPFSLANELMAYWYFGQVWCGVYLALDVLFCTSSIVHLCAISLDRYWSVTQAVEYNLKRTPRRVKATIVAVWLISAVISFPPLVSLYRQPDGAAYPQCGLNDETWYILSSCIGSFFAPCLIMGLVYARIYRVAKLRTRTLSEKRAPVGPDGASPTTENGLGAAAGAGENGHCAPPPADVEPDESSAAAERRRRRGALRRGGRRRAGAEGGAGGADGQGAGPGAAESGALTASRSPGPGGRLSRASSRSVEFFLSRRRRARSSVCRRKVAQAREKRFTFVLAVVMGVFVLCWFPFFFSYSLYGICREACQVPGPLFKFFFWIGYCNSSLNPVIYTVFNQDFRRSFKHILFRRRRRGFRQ

Take `O=C(c1cnc(N2CCOCC2)nc1)N1CCC(N2CCCC(OCC3CC3)C2)CC1` (stereo not drawn) [Example 17, [3-(Cyclopropylmethoxy)-1,4′-bipiperidin-1′-yl][2-(morpholin-4-yl)pyrimidin-5-yl]methanone]: the pIC50 in test [1] was 7.85.
Same read-out and setting: as for `COC[C@H]1CCCN1c1ncc(C(=O)N2CCC(N3CCC[C@@H](C)C3)CC2)cn1` [Example 20, {2-[(2R)-2-(Methoxymethyl)pyrrolidin-1-yl]pyrimidin-5-yl}[(3R)-3-methyl-1,4′-bipiperidin-1′-yl]methanone], the figure is 7.39; as for `C[C@@H]1CCCN(C2CCN(C(=O)c3cnc(N4CCOCC4)nc3)CC2)C1` [Example 16, [(3R)-3-Methyl-1,4′-bipiperidin-1′-yl][2-(morpholin-4-yl)pyrimidin-5-yl]methanone], 7.27.
On the same count and under the same terms, as for `CC[C@@H](CO)Nc1ccc(C(=O)N2CCC(N3CCC[C@@H](C)C3)CC2)cn1` [Example 10, (6-{[(2 S)-1-Hydroxybutan-2-yl]amino}pyridin-3-yl)[(3R)-3-methyl-1,4′-bipiperidin-1′-yl]methanone], the figure is 7.74; as for `COC[C@H]1CCCN1c1ccc(C(=O)N2CCC(N3CCC[C@@H](C)C3)CC2)cn1` [Example 3, {6-[(2R)-2-(Methoxymethyl)pyrrolidin-1-yl]pyridin-3-yl}[(3R)-3-methyl-1,4′-bipiperidin-1′-yl]methanone formic acid salt], 7.96; as for `C[C@@H]1CCCN(C2CCN(C(=O)c3cnc(N4CCC(F)(F)CC4)nc3)CC2)C1` [Example 19, [2-(4,4-Difluoropiperidin-1-yl)pyrimidin-5-yl][(3R)-3-methyl-1,4′-bipiperidin-1′-yl]methanone], 7.72.
On the same count and under the same terms, as for `C[C@@H]1CCCN(C2CCN(C(=O)c3cnc(N4CCS(=O)(=O)CC4)cn3)CC2)C1` [Example 21, [5-(1,1-Dioxidothiomorpholin-4-yl)pyrazin-2-yl][(3R)-3-methyl-1,4′-bipiperidin-1′-yl]methanone], the figure is 7.15.
For `C[C@@H]1CCCN(C2CCN(C(=O)c3ccc(N4CCC(F)(F)CC4)nc3)CC2)C1` [Example 5, [6-(4,4-Difluoropiperidin-1-yl)pyridin-3-yl][(3R)-3-methyl-1,4′-bipiperidin-1′-yl]methanone], the pIC50 in test [1] is 7.74.
The same measure, in the same setting: next, `C[C@@H]1CCCN(C2CCN(C(=O)c3cnc(N4CC5(COC5)C4)nc3)CC2)C1` [Example 18, [(3R)-3-Methyl-1,4′-bipiperidin-1′-yl][2-(2-oxa-6-azaspiro[3.3]hept-6-yl)pyrimidin-5-yl]methanone]: 7.62.
In the case of `COC[C@@]1(C)CCCN2CCc3c(oc4ccccc34)[C@@H]21` [ORM-12741, reference compound], in test [2], the “factor by which microcirculation is improved at MED compared to placebo” value is 1.9 ×, the MED skin temperature is recorded as 0.01 mg/kg and the MED microcirculation is 0.1 mg/kg.
Consider `C[C@@H]1CCCN(C2CCN(C(=O)c3ccc(N4CCS(=O)(=O)CC4)nc3)CC2)C1` [Example 9, [6-(1,1-Dioxidothiomorpholin-4-yl)pyridin-3-yl][(3R)-3-methyl-1,4′-bipiperidin-1′-yl]methanone], for which the pIC50 in test [1] was 7.57.
The same measure, in the same setting: as for `CC1CCCN(c2ccc(C(=O)N3CCC(N4CCC[C@@H](C)C4)CC3)cn2)C1` (stereo partly drawn) [Example 15, [(3R)-3-Methyl-1,4′-bipiperidin-1′-yl][6-(3-methylpiperidin-1-yl)pyridin-3-yl]methanone], the figure is 7.57; as for `CCC(COC(N)=O)Nc1ccc(C(=O)N2CCC(N3CCC[C@@H](C)C3)CC2)cn1` (stereo partly drawn) [Example 12, 2-[(5-{[(3R)-3-Methyl-1,4′-bipiperidin-1′-yl]carbonyl}pyridin-2-yl)amino]butyl carbamate], 7.68.
Same read-out and setting: next, `CCC(COC)Nc1ccc(C(=O)N2CCC(N3CCC[C@@H](C)C3)CC2)cn1` (stereo partly drawn) [Example 14, {6-[(1-Methoxybutan-2-yl)amino]pyridin-3-yl}[(3R)-3-methyl-1,4′-bipiperidin-1′-yl]methanone]: 7.80.
In the case of `CCC(CO)Nc1ccc(C(=O)N2CCC(N3CCC[C@@H](C)C3)CC2)cn1` (stereo partly drawn) [Example 11, {6[(1-Hydroxybutan-2-yl)amino]pyridin-3-yl}[(3R)-3-methyl-1,4′-bipiperidin-1′-yl]methanone], in test [1], the pIC50 was 7.21. Also, in test [2], the “factor by which microcirculation is improved at MED compared to placebo” value came to 2.4 ×, the MED skin temperature stood at 1 mg/kg and the MED microcirculation was found to be 1 mg/kg.
For the compound `O=C(c1ccc(N2CCOCC2)nc1)N1CCC(N2CCCC(OCC3CC3)C2)CC1` (stereo not drawn) [Example 7, [3-(Cyclopropylmethoxy)-1,4′-bipiperidin-1′-yl][6-(morpholin-4-yl)pyridin-3-yl]methanone], the pIC50 in test [1] is 7.89.
Same read-out and setting: next, `COCCNc1ccc(C(=O)N2CCC(N3CCC[C@@H](C)C3)CC2)cn1` [Example 4, {6-[(2-Methoxyethyl)amino]pyridin-3-yl}[(3R)-3-methyl-1,4′-bipiperidin-1′-yl]methanone]: 7.44.
The same measure, in the same setting: next, `COC1CCN(c2ccc(C(=O)N3CCC(N4CCC[C@@H](C)C4)CC3)cn2)C1` (stereo partly drawn) [Example 13, [6-(3-Methoxypyrrolidin-1-yl)pyridin-3-yl][(3R)-3-methyl-1,4′-bipiperidin-1′-yl]methanone]: 7.92.
The same measure, in the same setting: as for `C[C@@H]1CCCN(C2CCN(C(=O)c3ccc(N4CCOCC4)nc3)CC2)C1` [Example 2, [(3R)-3-Methyl-1,4′-bipiperidin-1′-yl][6-(morpholin-4-yl)pyridin-3-yl]methanone], the figure is 7.30.
Turning to `C[C@@H]1CCCN(C2CCN(C(=O)c3ccc(N(C)Cc4c(F)cccc4F)nc3)CC2)C1` [Example 8, {6-[(2,6-Difluorobenzyl)(methyl)amino]pyridin-3-yl}[(3R)-3-methyl-1,4′-bipiperidin-1′-yl]methanone], the pIC50 in test [1] is 8.35.
For `C[C@@H]1CCCN(C2CCN(C(=O)c3ccc(N4CCOCC4)nc3)CC2)C1` [Example 1, [(3R)-3-Methyl-1,4′-bipiperidin-1′-yl][6-(morpholin-4-yl)pyridin-3-yl]methanone formic acid salt], the pIC50 in test [1] (formic acid salt) was 7.55.
With `COCCN(C)c1ccc(C(=O)N2CCC(N3CCC[C@@H](C)C3)CC2)cn1` [Example 6, {6-[(2-Methoxyethyl)(methyl)amino]pyridin-3-yl}[(3R)-3-methyl-1,4′-bipiperidin-1′-yl]methanone hydrochloride], the pIC50 in test [1] is 7.48.

Source of the values: patent US9624199B2, “Substituted bipiperidinyl derivatives” (Bayer Pharma Aktiengesellschaft, priority 2013, dated 2017).
